Experimental data: US8420060B2, “Pharmaceutical aerosol formulations of formoterol and beclometasone dipropionate” (Chiesi Farmaceutici S.p.A., priority 2009, dated 2013)
Counter-ions that a name gives are not always drawn. Like-named read-outs stand apart in the source and are kept apart here.

Tests used:
[1] = Aerosol performances by Andersen Cascade Impactor (Eur. Pharm. 2.09.18), HPLC quantification; assay type: physicochemical; conditions: Example 5 formulation, mean n = 2; for Delivered Dose: 63 μl valve, nominal 6 μg formoterol / 50 μg BDP per actuation; for Fine particle dose: ACI S3 to filter, particles ≦4.7 microns; for Fine particle fraction: ratio respirable dose / delivered dose
Protocol: This formulation was filled into an aluminum canister under pressure and fitted with a metering valve having a 63 μl metering chamber.
Quantification of beclometasone dipropionate (BDP) and formoterol fumarate dehydrate (FF) was performed using a HPLC method. The following parameters were determined: • i) delivered dose is calculated from the cumulative deposition in the ACI, divided by the number of actuations per experiment; • ii) respirable dose (fine particle dose=FPD) is obtained from the deposition from Stages 3 (S3) to filter (AF) of the ACI, corresponding to particles of diameter ≦4.7 microns, divided by the number of actuations per experiment; • iii) respirable fraction (fine particle fraction=FPF) which is the percent ratio between the respirable dose and the delivered dose; • iv) mass median aerodynamic diameter (MMAD) which is the diameter around which the mass aerodynamic diameters of the emitted particles are distributed equally; and • v) Geometric standard deviation (GSD) which is a measure of the spread of the aerodynamic particle size distribution.

[2] = Storage (chemical) stability of HFA134a/ethanol pMDI solution; assay type: physicochemical; conditions: BDP in ethanol/HFA134a mixture, room temperature
Protocol: However, although it has the apparent pH adjusted according to the teaching of WO 01/89480 for improving its chemical stability, due to the limited stability of formoterol in solution, said formulation can be stored for no longer than 15 months at a refrigerator temperature (from +2 to +8° C.) and for no longer than 5 months at room temperature.

Row | SMILES | Delivered Dose [1] | Fine particle dose [1] | GSD [1] | MMAD [1] | Fine particle fraction [1] | change of formoterol fumarate dihydrate solubility in the presence of BDP (HFA227:ethanol 92.5:7.5 (w/w)) | change of formoterol fumarate dihydrate solubility in the presence of BDP (HFA227:ethanol 97.3:2.7 (w/w)) | storage time without significant degradation [2]
1 | COc1ccc(C[C@@H](C)NC[C@H](O)c2ccc(O)c(NC=O)c2)cc1 (racemic) [formoterol fumarate dihydrate, 2′-hydroxy-5′-[(RS)-1-hydroxy-2{[(RS)-p-methoxy-α-methylphenethyl]amino}ethyl]formanilide] | 3.9 µg | 2.3 µg | 1.5 | 2.0 μm | 59.3% | does not change | does not change | –
2 | CCC(=O)OCC(=O)[C@@]1(OC(=O)CC)[C@@H](C)C[C@H]2[C@@H]3CCC4=CC(=O)C=C[C@]4(C)[C@@]3(Cl)[C@@H](O)C[C@@]21C [BDP, (8S,9R,10S,11S,13S,14S,16S,17R)-9-chloro-11-hydroxy-10,13,16-trimethyl-3-oxo-17-[2-(propionyloxy)acetyl]-6,7,8,9,10,11,12,13,14,15,16,17-dodecahydro-3H-cyclopenta[a]phenanthren-17-yl propionate] | 46.0 µg | 30.0 µg | 2.2 | 1.1 μm | 64.0% | – | – | at least 35 months
